# Source: patent publication EP2054420B1, “BENZIMIDAZO[1,2-C][1,2,3]THIADIAZOL-7-SULFONAMIDES AS INHIBITORS OF CARBONIC ANHYDRASE AND THE INTERMEDIATES FOR PRODUCTION THEREOF” (Biotechnologijos Institutas, priority 2006, dated 2008)
# Target: bovine carbonic anhydrase II (Bos taurus, UniProt P00921)
# Assay: fluorescent thermal shift assay (ANS probe)
# Format: binding
# Details: upon increasing concentration of the inhibitor; Figure 3
# Experimental: Example 19. Determination of the observed binding constants by the fluorescent thermal shift assay.
# Inhibitor binding to carbonic anhytdrases was also measured by the fluorescent thermal shift assay, which employs 1-anilino-8-naphthalene sulfonate (ANS) probe that visualizes enzyme thermal stabilization by the inhibitor thus determining the binding constant.
# Resultant data is consistent with the isothermal titration calorimetry data in determining the observed binding constants of the inhibitors.
# Sequence of bovine carbonic anhydrase II (P00921 whole entry): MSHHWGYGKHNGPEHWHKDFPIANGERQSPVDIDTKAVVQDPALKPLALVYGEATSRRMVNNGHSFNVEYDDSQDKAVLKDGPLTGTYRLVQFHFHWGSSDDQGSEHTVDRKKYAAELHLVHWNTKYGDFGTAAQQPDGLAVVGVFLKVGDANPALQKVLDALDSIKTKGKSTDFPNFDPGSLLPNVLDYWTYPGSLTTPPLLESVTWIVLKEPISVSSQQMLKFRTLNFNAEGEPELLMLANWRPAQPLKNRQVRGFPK
structure (smiles),measurement,value
"NS(=O)(=O)c1ccc2nc3n(c2c1)N=S=C3N1CCOCC1 [compound 4, 3-morpholinbenzimidazo[1,2-c][1,2,3]thiadiazol-7-sulfonamide]",melting temperature (Tm),Tm increase
